Measurements: article PMC12736194, “1-Azinyl-1′-Alkenylferrocenes with Anticholinesterase, Antioxidant, and Antiaggregating Activities as Multifunctional Agents for Potential Treatment of Alzheimer’s Disease” (Pharmaceuticals, 2025)

What was measured:
[1] = Ferric reducing antioxidant power (FRAP) assay; conditions: Trolox equivalents; acetate buffer pH 3.6, 1 h, 37 °C
[2] = tested on: human neuroblastoma cell cultures (SH-SY5Y); experiment: Cytotoxicity, MTT test, SH-SY5Y; conditions: read-out: Cytotoxic activity, LC50, SH-SY5Y, 24 h, 1 to 1024 μM, mean ± SE, n = 3
Procedure: (§1) Cytotoxic activity was assessed using the MTT test. […] For each compound, the half-lethal concentration parameter LC50 (μM) was calculated.
(§2) This study employed SH-SY5Y neuroblastoma cells and dental pulp-derived mesenchymal stem cells (MSC-DP). Cells were cultured in DMEM/F12 with 10% (v/v) FBS under standard conditions. MSC-DP were reprogrammed into neuronal-like cells (MSC-Neu) using Neurobasal medium with addition of Neuromax and 3% (v/v) FBS for 5 days.
(§3) The cytotoxic effect of Fcs was assessed using the Mossman test for cellular dehydrogenase activity (MTT test). […] For each compound, the half-lethal concentration parameter (LC50) in μM was calculated as described previously.

[3] = tested on: reprogrammed human neuronal cell cultures (MSC-Neu); experiment: Cytotoxicity, MTT test, MSC-Neu; conditions: read-out: Cytotoxic activity, LC50, MSC-Neu, 24 h, 1 to 1024 μM, mean ± SE, n = 3
Procedure: as §1, §2, §3

[4] = target: T1, human (Homo sapiens) erythrocyte AChE (HsAChE) (Homo sapiens, UniProt P22303); experiment: Inhibition of HsAChE (spectrophotometric, ATCh iodide substrate); format: biochemical; conditions: K/Na-phosphate buffer pH 7.5, 25 °C; mean ± SEM, n = 3
T1 construct: human (Homo sapiens) erythrocyte AChE (HsAChE); purchased Sigma-Aldrich; host or cells: human erythrocytes
Procedure: (§4) In these experiments, human (Homo sapiens) erythrocyte AChE (HsAChE), equine (Equus caballus) serum BChE (EcBChE), and porcine (Sus scrofa) liver CES (SsCES) were used because of their ready availability, relatively low cost, and high sequence homology of EcBChE and SsCES to the corresponding human enzymes.
(§5) Enzymes, substrates, and reference compounds were sourced from Sigma-Aldrich (St. Louis, MO, USA). Enzyme activity was measured spectrophotometrically according to [91] using ATCh iodide, BTCh iodide, and 4-NPA as substrates for HsAChE, EcBChE, and SsCES, respectively. Experimental conditions included a K/Na-phosphate buffer (100 mM), at 25 °C, with pH 7.5 for AChE and BChE assays, and pH 8.0 for CES assays. Measurements were conducted on a BioRad Benchmark Plus microplate spectrophotometer (Hercules, CA, USA). Test compounds were dissolved in DMSO with a final solvent concentration of 2% (v/v) in the incubation mixture.

[5] = target: T2, peripheral anionic site (PAS) of Electrophorus electricus AChE (EeAChE) (Electrophorus electricus, UniProt O42275); experiment: Propidium displacement from the EeAChE PAS (fluorescence); format: binding; conditions: compound concentration 20 µM; EeAChE 7 μM, propidium iodide 8 μM, Tris-HCl pH 8.0; n.a. = not active
T2 construct: purchased Sigma-Aldrich type VI-S
Procedure: A fluorescence-based assay assessed the ability of test compounds to competitively displace propidium iodide from AChE’s PAS [65, 93]. […] EeAChE (7 μM) was incubated with 20 μM test compounds in Tris-HCl buffer (pH 8.0) for 15 min, followed by addition of propidium iodide (8 μM) as described in detail in [95]. Fluorescence readings (530 nm excitation, 600 nm emission) were obtained using a FLUOStar Optima microplate reader (LabTech, Ortenberg, Germany). Displacement (%) was calculated.

[6] = target: T3, human β-amyloid (1–42) (HsAβ42) (Homo sapiens, UniProt P05067); experiment: Inhibition of HsAβ42 self-aggregation (thioflavin T fluorescence); format: biochemical; conditions: HsAβ42 50 µM, compound 100 µM, 24 h, 37 °C; n.a. = not active
T3 construct: purchased AnaSpec Inc
Procedure: The potential of compounds from all three groups (1a-e, 5a-e, 7a-d) to inhibit HsAβ42 self-aggregation was evaluated using a Thioflavin T (ThT) fluorescence assay.
Inhibition of HsAβ42 self-aggregation by test compounds was studied using the thioflavin T (ThT) fluorescence method with minor modifications as described in detail in [79]. Lyophilized HFIP-pretreated HsAβ42 (AnaSpec Inc., Fremont, CA, USA, 0.5 mg) was dissolved in DMSO to obtain a stable 500 μM solution. The samples of 50 μM HsAβ42 in 215 mM Na-phosphate buffer pH 8.0 were incubated for 24 h at 37 °C in the absence or presence of 100 μM test compounds. Myricetin in the same concentration was used as a reference. After incubation, 5 μM ThT in 50 mM glycine-NaOH buffer pH 8.5 was added, and the fluorescence was measured at 440 nm (exc.) and 485 nm (emis.) with a FLUOStar Optima microplate reader. Blanks consisted of 215 mM Na-phosphate buffer, pH 8.0, 20% (v/v) DMSO or test compounds, respectively. The inhibition (%) of HsAβ42 self-aggregation by the test compounds was calculated.

[7] = ABTS radical cation scavenging activity assay; conditions: ethanol, 1 h; for IC50: ABTS^•+ 100 μM; for ABTS^•+-Scavenging Activity, TEAC: Trolox equivalent antioxidant capacity, mean ± SEM, n = 3
[8] = target: T4, equine (Equus caballus) serum BChE (EcBChE) (Equus caballus, UniProt P81908); experiment: Inhibition of EcBChE (spectrophotometric, BTCh iodide substrate); format: biochemical; conditions: K/Na-phosphate buffer pH 7.5, 25 °C; mean ± SEM, n = 3
T4 construct: equine (Equus caballus) serum BChE (EcBChE); purchased Sigma-Aldrich; host or cells: horse serum
Procedure: as §4, §5

[9] = tested on: porcine (Sus scrofa) liver CES (SsCES); experiment: Inhibition of SsCES (spectrophotometric, 4-NPA substrate); format: biochemical; conditions: compound 20 μM; n.a. = not active; mean ± SEM, n = 3
Source text: as §4
Although the dominant carboxylesterase in porcine liver is CES1 [64], the preparation sourced from Sigma-Aldrich is not a purified or recombinant CES1. Therefore, we have designated the preparation used in our experimental studies as SsCES. However, in computational molecular docking studies, it is necessary to choose a single defined protein as the docking target. Thus, the logical choice for our computational studies of CES was the most abundant and best characterized isoform found in porcine liver, which is SsCES1.
as §5

HsAChE = target: T5, HsAChE (Homo sapiens, UniProt P22303); experiment: Kinetic study of HsAChE inhibition (Lineweaver-Burk); format: biochemical
T5 construct: human (Homo sapiens) erythrocyte AChE (HsAChE); purchased Sigma-Aldrich; host or cells: human erythrocytes
Procedure: (§6) . To determine the relationship between enzyme activity and inhibitor concentration at different substrate levels, we conducted kinetic assays. The kinetic data analysis, using Lineweaver–Burk plots, is shown in Figure 2A and Figure 2B for HsAChE and EcBChE, respectively.
(§7) To investigate the mechanisms of HsAChE and EcBChE inhibition, enzyme kinetics were analyzed (detailed in [92]). After a 5 min equilibration at 25 °C with three different inhibitor concentrations and six substrate concentrations, residual enzyme activity was measured as described. Lineweaver–Burk plots (1/V vs. 1/[S]) were used to determine competitive (Ki) and non-competitive (αKi) inhibition constants.

EcBChE = target: T6, EcBChE (Equus caballus, UniProt P81908); experiment: Kinetic study of EcBChE inhibition (Lineweaver-Burk); format: biochemical
T6 construct: equine (Equus caballus) serum BChE (EcBChE); purchased Sigma-Aldrich; host or cells: horse serum
Procedure: as §6, §7

[10] = cited from earlier work
MCF7 cell line = conditions: Figure 12; read-out: LC50, MCF7 cell line; cited from earlier work

T4 sequence (P81908 whole entry): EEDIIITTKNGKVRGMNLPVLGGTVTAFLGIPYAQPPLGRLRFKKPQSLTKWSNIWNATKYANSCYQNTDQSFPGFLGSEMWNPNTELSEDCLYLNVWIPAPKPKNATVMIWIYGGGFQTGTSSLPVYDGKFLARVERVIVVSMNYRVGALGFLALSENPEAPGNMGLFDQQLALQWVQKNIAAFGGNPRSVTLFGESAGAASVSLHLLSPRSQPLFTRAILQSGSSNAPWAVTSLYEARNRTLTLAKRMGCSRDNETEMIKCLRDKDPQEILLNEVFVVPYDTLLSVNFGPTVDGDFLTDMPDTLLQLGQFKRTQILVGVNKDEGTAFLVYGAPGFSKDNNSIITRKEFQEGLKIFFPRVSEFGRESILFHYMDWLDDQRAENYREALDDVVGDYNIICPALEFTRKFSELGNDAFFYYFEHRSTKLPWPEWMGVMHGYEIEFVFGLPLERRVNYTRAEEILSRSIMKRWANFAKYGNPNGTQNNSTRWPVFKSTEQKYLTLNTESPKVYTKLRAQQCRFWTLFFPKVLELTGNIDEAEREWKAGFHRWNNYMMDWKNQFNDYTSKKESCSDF
T6 sequence (P81908 whole entry): as above
T2 sequence (O42275 24-633): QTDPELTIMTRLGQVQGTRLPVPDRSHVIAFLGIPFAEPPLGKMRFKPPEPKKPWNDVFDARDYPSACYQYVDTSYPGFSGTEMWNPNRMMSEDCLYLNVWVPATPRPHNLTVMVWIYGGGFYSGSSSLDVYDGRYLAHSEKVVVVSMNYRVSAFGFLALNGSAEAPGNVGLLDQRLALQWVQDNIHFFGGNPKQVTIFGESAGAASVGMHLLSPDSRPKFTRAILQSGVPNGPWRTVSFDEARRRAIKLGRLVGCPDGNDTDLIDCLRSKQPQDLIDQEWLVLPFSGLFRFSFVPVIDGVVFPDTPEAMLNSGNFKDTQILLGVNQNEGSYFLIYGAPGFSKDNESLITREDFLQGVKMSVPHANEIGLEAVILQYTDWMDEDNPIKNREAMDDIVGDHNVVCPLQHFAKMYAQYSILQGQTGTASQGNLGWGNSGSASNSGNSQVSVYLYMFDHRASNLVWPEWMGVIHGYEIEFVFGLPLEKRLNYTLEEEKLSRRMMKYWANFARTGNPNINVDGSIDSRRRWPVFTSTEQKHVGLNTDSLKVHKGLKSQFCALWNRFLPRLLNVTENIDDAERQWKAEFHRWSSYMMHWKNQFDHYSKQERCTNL
T3 sequence (P05067 672-713 limits assumed): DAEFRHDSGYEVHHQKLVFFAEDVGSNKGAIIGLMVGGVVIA
T5 sequence (P22303 32-617 isoform P22303-2 limits assumed): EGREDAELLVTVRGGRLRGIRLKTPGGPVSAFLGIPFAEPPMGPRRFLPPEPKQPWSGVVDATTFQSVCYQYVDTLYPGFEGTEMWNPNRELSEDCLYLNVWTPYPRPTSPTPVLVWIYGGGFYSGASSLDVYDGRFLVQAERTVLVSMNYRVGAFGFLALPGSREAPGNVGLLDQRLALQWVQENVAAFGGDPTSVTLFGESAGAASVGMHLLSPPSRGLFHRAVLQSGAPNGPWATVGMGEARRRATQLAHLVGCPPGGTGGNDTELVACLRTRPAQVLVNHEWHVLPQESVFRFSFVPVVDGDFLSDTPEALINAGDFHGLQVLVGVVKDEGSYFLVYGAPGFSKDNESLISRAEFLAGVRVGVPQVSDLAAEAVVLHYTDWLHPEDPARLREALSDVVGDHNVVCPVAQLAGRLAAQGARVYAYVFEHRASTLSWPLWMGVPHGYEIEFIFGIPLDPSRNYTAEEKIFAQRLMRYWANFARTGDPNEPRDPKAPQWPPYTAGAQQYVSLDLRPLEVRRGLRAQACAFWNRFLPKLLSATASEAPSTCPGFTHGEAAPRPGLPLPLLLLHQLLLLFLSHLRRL
T1 sequence (P22303 32-617 isoform P22303-2 limits assumed): as above

With `[Fe+2].c1cc[cH-]c1.c1ccc2nc(-[c-]3cccc3)ccc2c1` [1b] the “Ferric Reducing Antioxidant Power, TE” value [1] was 2.21 ± 0.01, the CC50 [2] was 243 ± 27.4 µM and the CC50 [3] was 393 ± 13.2 µM. For the same compound, the IC50 [4] was 68.1 ± 3.4 µM, the “Propidium Displacement, (%)” value [5] was 10.2 ± 0.8% and the “HsAβ42 self-Aggregation Inhibition, (%)” value [6] was 79.5 ± 6.3%. The IC50 [7] was 6.6 ± 0.3 µM, the “ABTS^•+-Scavenging Activity, TEAC” value [7] was 4.2 ± 0.2 and the IC50 [8] was 2.7 ± 0.19 µM. The “Inhibition of SsCES, % inhibition at 20 μM” value [9] was 29.8 ± 2.0%.

For `[Fe+2].c1cc[cH-]c1.c1ccc(-c2cccc(-[c-]3cccc3)n2)nc1` [1d], the “Ferric Reducing Antioxidant Power, TE” value [1] was 1.77 ± 0.04, the CC50 [2] was 152 ± 21.2 µM and the CC50 [3] was 632 ± 22.8 µM. For the same compound, the IC50 [4] was 7.89 ± 0.63 µM, the “Propidium Displacement, (%)” value [5] was 11.1 ± 0.9% and the “HsAβ42 self-Aggregation Inhibition, (%)” value [6] was 63.7 ± 5.1%. For the same compound, the IC50 [7] was 20.6 ± 1.5 µM, the “ABTS^•+-Scavenging Activity, TEAC” value [7] was 1.00 ± 0.04 and the IC50 [8] was 13.8 ± 1.2 µM. For the same compound, the “Inhibition of SsCES, % inhibition at 20 μM” value [9] was 20.9 ± 1.6%.

For `C=C(C)[c-]1cccc1.[Fe+2].c1ccc2nc(-[c-]3cccc3)ccc2c1` [5b], the “Ferric Reducing Antioxidant Power, TE” value [1] was 3.13 ± 0.17, the CC50 [2] was 281 ± 30.1 µM and the CC50 [3] was 564 ± 31.8 µM. For the same compound, the IC50 [4] was 4.01 ± 0.28 µM, the “Propidium Displacement, (%)” value [5] was 11.5 ± 0.8% and the “HsAβ42 self-Aggregation Inhibition, (%)” value [6] was 82.9 ± 6.6%. The IC50 [7] was 5.6 ± 0.3 µM, the “ABTS^•+-Scavenging Activity, TEAC” value [7] was 4.3 ± 0.2 and the IC50 [8] was 9.91 ± 0.69 µM. The “Inhibition of SsCES, % inhibition at 20 μM” value [9] was 35.4 ± 2.8%.

For `C=C(C)[c-]1cccc1.[Fe+2].c1ccc(-c2cccc(-[c-]3cccc3)n2)nc1` [5d], the “Ferric Reducing Antioxidant Power, TE” value [1] was 1.47 ± 0.06, the CC50 [2] was 189 ± 19.3 µM and the CC50 [3] was 414 ± 18.6 µM. The IC50 [4] was 5.12 ± 0.41 µM, the “Propidium Displacement, (%)” value [5] was 8.2 ± 0.6% and the “HsAβ42 self-Aggregation Inhibition, (%)” value [6] was 83.8 ± 4.2%. For the same compound, the IC50 [7] was 20.8 ± 0.1 µM, the “ABTS^•+-Scavenging Activity, TEAC” value [7] was 0.94 ± 0.05 and the IC50 [8] was 4.86 ± 0.39 µM.

In the case of `C=C[c-]1cccc1.[Fe+2].c1ccc2nc(-[c-]3cccc3)ccc2c1` [7b, 1-(Quinolin-2-yl)-1′-Vinylferrocene], the “Ferric Reducing Antioxidant Power, TE” value [1] is reported as 2.21 ± 0.02, the CC50 [2] is reported as 287 ± 31.7 µM and the “noncompetitive component of inhibition constant (αKi), HsAChE” value (HsAChE) is reported as 3.05 ± 0.18 µM. The “type of inhibition, HsAChE” value (HsAChE; Vmax and Km both change) was “mixed type of inhibition”, the Ki (HsAChE; read-out: competitive component of inhibition constant (Ki), HsAChE) was 1920 ± 130 nM and the CC50 [3] was 277 ± 14.8 µM. For the same compound, the IC50 [4] was 3.32 ± 0.23 µM, the “Propidium Displacement, (%)” value [5] was 7.7 ± 0.6% and the “HsAβ42 self-Aggregation Inhibition, (%)” value [6] was 89.6 ± 6.2%. The “noncompetitive component of inhibition constant (αKi), EcBChE” value (EcBChE) was 4.58 ± 0.27 µM, the “type of inhibition, EcBChE” value (EcBChE; Vmax and Km both change) was “mixed type of inhibition” and the Ki (EcBChE; read-out: competitive component of inhibition constant (Ki), EcBChE) was 2770 ± 220 nM. For the same compound, the IC50 [7] was 5.3 ± 0.2 µM, the “ABTS^•+-Scavenging Activity, TEAC” value [7] was 4.4 ± 0.2 and the IC50 [8] was 3.68 ± 0.29 µM. The “Inhibition of SsCES, % inhibition at 20 μM” value [9] was 29.8 ± 2.6%.

For `C=C[c-]1cccc1.[Fe+2].c1ccc(-c2cccc(-[c-]3cccc3)n2)nc1` [7d, 1-(2,2′-Bipyridin-6-yl)-1′-Vinylferrocene], the “Ferric Reducing Antioxidant Power, TE” value [1] was 1.93 ± 0.06, the CC50 [2] was 158 ± 19.8 µM and the CC50 [3] was 299 ± 21.9 µM. The IC50 [4] was 6.34 ± 0.51 µM, the “Propidium Displacement, (%)” value [5] was 9.7 ± 0.6% and the “HsAβ42 self-Aggregation Inhibition, (%)” value [6] was 81.5 ± 4.9%. The IC50 [7] was 15.6 ± 0.7 µM, the “ABTS^•+-Scavenging Activity, TEAC” value [7] was 1.36 ± 0.06 and the IC50 [8] was 7.94 ± 0.55 µM. For the same compound, the “Inhibition of SsCES, % inhibition at 20 μM” value [9] was 5.8 ± 1.3%.

For `c1ccc(-c2ccccn2)nc1` [Bipyridine], the “Experimental pKa” value [10] is given as 4.35.

For `CCC(=C(c1ccc(O)cc1)c1ccc(O)cc1)[c-]1cccc1.[Fe+2].c1cc[cH-]c1` [Ferrocifenol], the CC50 (MCF7 cell line) is given as 0.9 µM.

For `CC(=C(c1ccc(O)cc1)c1ccc(O)cc1)[c-]1cccc1.[Fe+2].c1cc[cH-]c1` [compound 10, 1,1-bis(4-hydroxyphenyl)-2-ferrocenylprop-1-ene, reference compound], the CC50 (MCF7 cell line) is given as 18.1 ± 2.1 µM, the CC50 [2] is given as 43.4 ± 6.7 µM and the CC50 [3] is given as 104 ± 12.3 µM.

For `CC(=C(c1ccc(O)cc1)c1ccc(O)cc1)[c-]1cccc1.[Fe+2].c1ccc2nc(-[c-]3cccc3)ccc2c1` [compound 11, 1-(quinolin-2-yl)-1’-{1-[bis(4-hydroxyphenyl)methylene]ethyl}ferrocene, reference compound], the CC50 (MCF7 cell line) is given as 50.9 ± 3.65 µM, the CC50 [2] is given as 57.8 ± 8.2 µM and the CC50 [3] is given as 139 ± 15.7 µM.
